We go through five molecules from patent publication US20230135093A1, “TRIAZOLYL DERIVATIVES AS GABA A ALPHA5 PAM” (Hoffmann-La Roche Inc., priority 2020, published 2023).

The target in assay [1] is T1, h-GABA-A α5β3γ2 (Homo sapiens, UniProt P18507+P31644).
T1 construct: expressed in transfected cells; host or cells: Xenopus laevis oocytes, micro-injected with subunit RNA
In words: Two-electrode voltage clamp electrophysiology in Xenopus oocytes expressing GABAA receptors (modulation of GABA EC20 current). Format: cell-based. Put shortly:
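Oocytes injected with α5β3γ2 subunit RNA, recorded 3-5 days later by two-electrode clamp at −80 mV, room temperature, pH 7.4. The compound, at ~30-fold its Ki, was co-applied during a second GABA EC20 pulse. Efficacy was the extremum of the point-by-point second/first current ratio, given as % modulation (100×(fold−1)); n≥3 oocytes.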
On the technique in general: In two-electrode clamp one electrode senses voltage and the other passes current.

In assay [2] the target is T1, h-GABA-A α5β3γ2. In words: [3H]flumazenil competition binding assay on membranes of HEK293 cells expressing GABAA receptors. Put shortly:
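Membranes from HEK293 cells transiently expressing human α5β3γ2 were incubated 1 h at 4 °C in Krebs-tris pH 7.5 with 0.5 nM [3H]flumazenil and test compound. Nonspecific binding was set with 10^−5 M diazepam. Bound radioactivity was filtered and counted. Ki is the mean of two determinations.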

Where [3] appears, read: Table 1, % modulation of GABA EC20 = 100*(Fold increase-1).
Where [4] appears, read: Table 1, Xenopus oocytes, GABA EC20, test compound at approximatively 30 fold its Ki.
[5] abbreviates: Table 1, displacement of [3H]-Flumazenil (0.5 nM), HEK293 cells expressing human receptors, means of two determinations.
[6] abbreviates: Table 2, reference compounds, % modulation of GABA EC20.
Where [7] appears, read: Table 2, reference compounds, GABAA α5β3γ2 overexpressing oocytes, GABA EC20.
Setting [8] is: Table 2, reference compounds, displacement of [3H]-Flumazenil.

One may read the Ki as the dissociation constant of the complex between target and ligand, obtained from inhibition or displacement.

`CCn1nnc(-c2ccc(Cl)cc2F)c1Cn1ncc(N2CC3(CC[C@@H](F)CO3)C2)cc1=O` [Example 125, (R)-2-((4-(4-chloro-2-fluorophenyl)-1-ethyl-1H-1,2,3-triazol-5-yl)methyl)-5-(7-fluoro-5-oxa-2-azaspiro[3.5]nonan-2-yl)pyridazin-3(2H)-one]: at h-GABA-A α5β3γ2 [1] (setting [3]), the “Efficacy (GABA) %” value stood at 69%. At h-GABA-A α5β3γ2 [1] (setting [4]), the “Fold increase h-GABA-A α5β3γ2 oocyte” value is reported as 1.69. The molecule further yielded a Ki at h-GABA-A α5β3γ2 [2] (setting [5]) of 0.0253 µM.

For the molecule `Cn1nnc(-c2ccc(Cl)cc2F)c1Cn1ncc(N2CC3(CC[C@H](F)CO3)C2)cc1=O` [Example 126, (S)-2-((4-(4-chloro-2-fluorophenyl)-1-methyl-1H-1,2,3-triazol-5-yl)methyl)-5-(7-fluoro-5-oxa-2-azaspiro[3.5]nonan-2-yl)pyridazin-3(2H)-one], the “Efficacy (GABA) %” value at h-GABA-A α5β3γ2 [1] (setting [3]) is listed as 61%. In addition, the “Fold increase h-GABA-A α5β3γ2 oocyte” value at h-GABA-A α5β3γ2 [1] (setting [4]) stood at 1.61. Further, on h-GABA-A α5β3γ2 [2] (setting [5]), the Ki turned out to be 0.0175 µM.

As for `Cn1nnc(-c2ccccc2F)c1COc1ccc(-n2cnc(C(F)F)c2)nn1` [RO-007, reference compound], the “Efficacy (GABA) %” value at h-GABA-A α5β3γ2 [1] (setting [6]) is −28%. Further, the “Fold increase h-GABA-A α5β3γ2 oocyte” value on h-GABA-A α5β3γ2 [1] (setting [7]) was 0.72. At h-GABA-A α5β3γ2 [2] (setting [8]), this molecule showed a Ki of 0.0584 µM.

In the case of `Cn1nnc(-c2ccc(F)cc2)c1COc1ccc(C(=O)NN2CCOCC2)nn1` [RO-045, reference compound], on h-GABA-A α5β3γ2 [1] (setting [6]), the “Efficacy (GABA) %” value is given as −38%. Besides, on h-GABA-A α5β3γ2 [1] (setting [7]), the “Fold increase h-GABA-A α5β3γ2 oocyte” value was 0.62. Moreover, on h-GABA-A α5β3γ2 [2] (setting [8]), the affinity, expressed as Ki, was 0.0532 µM.

Consider `Cn1nnc(-c2ccc(F)cn2)c1COc1ccc(C(=O)NN2CCOCC2)nn1` [RO-052, reference compound], for which, at h-GABA-A α5β3γ2 [1] (setting [6]), the “Efficacy (GABA) %” value is on record as −15%. Further, the “Fold increase h-GABA-A α5β3γ2 oocyte” value on h-GABA-A α5β3γ2 [1] (setting [7]) worked out at 0.85. Moreover, the Ki on h-GABA-A α5β3γ2 [2] (setting [8]) was determined as 0.0334 µM.
